Values of other authors in PMC11949389 (Polish Journal of Microbiology, 2025).
Converted amounts (≈) assume the structure as drawn.

Tests used:
[1] = tested on: Enterococcus sp.; details: ref Caballero Gómez et al. 2022
[2] = tested on: Vancomycin-resistant Enterococcus (VRE); details: Vancomycin-resistant Enterococcus (VRE); ref Owen et al. 2019
[3] = tested on: Staphylococcus sp.; details: ref Caballero Gómez et al. 2022
[4] = tested on: Staphylococcus aureus
[5] = tested on: Methicillin-susceptible Staphylococcus aureus; details: ref Owen et al. 2019
[6] = tested on: Methicillin-resistant Staphylococcus aureus; details: Methicillin-resistant Staphylococcus aureus; ref Owen et al. 2019
[7] = tested on: Mupirocin-susceptible Staphylococcus aureus; details: ref Kwiatkowski et al. 2019
[8] = tested on: Mupirocin-resistant Staphylococcus aureus; details: ref Kwiatkowski et al. 2019
[9] = tested on: Staphylococcus pseudintermedius
[10] = tested on: β-haemolytic Streptococcus spp.; details: ref Sim et al. 2019
[11] = tested on: Streptococcus suis; details: ref de Aguiar et al. 2019
[12] = tested on: Acinetobacter baumannii; details: combined with ciprofloxacin, ref Aleksic Sabo et al. (2021)
[13] = tested on: Escherichia coli; details: Escherichia coli; ref Owen et al. 2019; Sayout et al. 2020; Noumi et al. 2023
[14] = tested on: Klebsiella pneumoniae; details: ref Sayout et al. 2020, de Souza et al. 2021, Kwiatkowski et al. 2022
[15] = tested on: Malassezia pachydermatis; details: ref Schlemmer et al. 2019, Sim et al. 2019
[16] = tested on: Proteus mirabilis; details: ref Sim et al. 2019
[17] = tested on: Pseudomonas sp.; details: ref Caballero Gómez et al. 2022
[18] = tested on: Pseudomonas aeruginosa; details: Pseudomonas aeruginosa; ref Owen et al. 2019; Sim et al. 2019; Noumi et al. 2023
[19] = tested on: Candida auris
[20] = tested on: Candida glabrata
[21] = tested on: Candida krusei; details: Candida krusei; ref Sharifzadeh et al. 2019; Iraji et al. 2020; Biernasiuk et al. 2022; Stringaro et al. 2022
[22] = tested on: Candida tropicalis; details: Candida tropicalis; ref Iraji et al. 2020; Stringaro et al. 2022
[23] = tested on: Staphylococcus aureus Pseudomonas fluorescens; details: ref Wang et al. 2020b
[24] = tested on: Pseudomonas aeruginosa Enterococcus faecalis; details: ref Mechmechani et al. 2022
[25] = tested on: Salmonella Thyphimurium; details: ref Giovagnoni et al. 2020
[26] = tested on: Extended-spectrum beta-lactamases Escherichia coli; details: ESBL Escherichia coli; ref Khan et al. 2020
[27] = tested on: Candida albicans; details: ref Shaban et al. 2020
[28] = tested on: carbapenem and polymyxin-resistant Klebsiella pneumoniae; details: ref de Souza et al. (2021)
[29] = tested on: various microorganisms; details: across various microorganisms; ref Owen et al. (2019)
[30] = tested on: carbapenem-resistant E. coli and P. aeruginosa; details: ref Owen et al. (2019)
[31] = tested on: Salmonella Typhimurium; details: ref Giovagnoni et al. (2020)
[32] = tested on: bacteria co-isolated with C. albicans; details: ref Touil et al. (2020)
[33] = tested on: HSV-2; details: HSV-2, 1 mmol/l; ref Wang et al. (2020a)
[34] = tested on: HIV-1; details: ref Mediouni et al. (2020)
[35] = tested on: C. albicans and co-isolated bacteria; details: carvacrol combined with cuminaldehyde; ref Touil et al. (2020)
[36] = tested on: carbapenem-resistant Klebsiella pneumoniae (CRKP) strains; details: with meropenem, ref Köse (2022)
[37] = tested on: TetK efflux pump; details: S. aureus, ref Sousa Silveira et al. (2020)
[38] = tested on: Mycobacterium biofilms, including Mycobacterium abscessus and Mycobacterium fortuitum; details: even at sub-MIC concentrations; ref Marini et al. (2019)
[39] = Candida auris, ref Shaban et al. 2020

## Cc1ccc(C(C)C)cc1O [Carvacrol]
[1]
  MIC/Sensitivity: 100 to 450 mg/L
[2]
  MIC/Sensitivity: 593369 mg/L (≈ 3950 mM)
[3]
  MIC/Sensitivity: 200 to 400 mg/L
[4]; S. aureus, ref Sousa Silveira et al. (2020)
  MIC: 256 mg/L (≈ 1.7 mM)
[4]; Staphylococcus aureus, ref Kwiatkowski et al. 2020, Sayout et al. 2020, Sousa Silveira et al. 2020, Macêdo et al. 2022, Noumi et al. 2023, Sharma et al. 2023
  MIC/Sensitivity: 256 to 3200 mg/L
[5]
  MIC/Sensitivity: 297435.6 mg/L (≈ 1980 mM)
[6]
  MIC/Sensitivity: 148717.8 mg/L (≈ 990 mM)
[7]
  MIC/Sensitivity: 950 mg/L (≈ 6.32 mM)
[8]
  MIC/Sensitivity: 480 mg/L (≈ 3.2 mM)
[9]; S. pseudintermedius, ref Sim et al. (2019)
  MIC90: 146 mg/L (≈ 0.972 mM)
[9]; Staphylococcus pseudintermedius, ref Sim et al. 2019
  MIC/Sensitivity: 146 to 292 mg/L
[10]; β-haemolytic Streptococcus spp.
  MIC/Sensitivity: 146 to 292 mg/L
[10]; β-hemolytic Streptococcus
  MIC90: 292 to 400 mg/L
[11]
  MIC/Sensitivity: 156.25 mg/L (≈ 1.04 mM)
[12]
  FICI: 0.25–0.32
[13]
  MIC/Sensitivity: 297435.6 mg/L (≈ 1980 mM)
[14]
  MIC/Sensitivity: 130 to 1910 mg/L
[15]
  MIC/Sensitivity: 10 to 585 mg/L
[16]
  MIC/Sensitivity: 146 to 292 mg/L
[17]
  MIC/Sensitivity: 100 to 400 mg/L
[18]
  MIC/Sensitivity: 585 to 1120 mg/L
[19]; C. auris, ref Shaban et al. (2020)
  median MIC: 125 mg/L
[19]; [39]
  MIC: 125 mg/L (≈ 0.832 mM)
  MIC/Sensitivity: 125 mg/L (≈ 0.832 mM)
[20]; Candida glabrata, ref Sharifzadeh et al. 2019, Iraji et al. 2020, Biernasiuk et al. 2022, Stringaro et al. 2022
  MIC/Sensitivity: 62.50 to 195 mg/L
[20]; with voriconazole, C. glabrata, ref Sharifzadeh et al. (2019)
  FICI: 0.412–0.625
[21]
  MIC/Sensitivity: 87.50 to 125 mg/L
[22]
  MIC/Sensitivity: 97.5 mg/L (≈ 0.649 mM)
[23]
  Mechanisms of action: • Targeted extracellular polymeric substances • Disruption of biofilm structures
[24]
  Mechanisms of action: • Cell membrane destruction • Leakage of the intercellular pool • Anti-biofilm properties • Increased extracellular K+ ions concentrations
[25]
  Mechanisms of action: • Anti-inflammatory effects • Anti-oxidant properties • Enhanced epithelial barrier integrity • Reduction of bacterial translocation • Improved transepithelial electrical resistance • Inhibited bacterial growth
[26]
  Mechanisms of action: • Disintegration of bacterial cell membranes • Elevation of reactive oxygen species levels • Protected macrophage cells from bacterial invasion • Increased the release of K+ ions, ATP, and cellular DNA • Anti-biofilm properties
[27]
  Mechanisms of action: • Reduced proteinase production
[28]
  MIC: 130 to 260 mg/L
[29]
  MIC: 990 to 15810 µM
[30]
  activity: ineffective
[31]
  MIC: 1870 µM (≈ 281 µg/mL)
[32]
  MIC: 1,000 μg/ml
[33]
  virus release rate: 33.67%
[34]; HIV-1
  IC50: 16 µM
[34]; pretreatment of HIV
  reduction of viral infectivity: 60.6%
[35]
  MIC in combination: 60 to 250 mg/L
[36]; checkerboard assays, CRKP
  FICI: 0.5
[36]
  CRKP strains with synergy: 8 of 25
[37]
  efflux pump inhibition: did not act as efflux pump inhibitors
[38]
  effect on biofilms: inhibited biofilm formation and disrupted pre-formed biofilms
